The values below come from patent publication US8586588B2, “Aryl pyridazinone derivatives and their use as H3 receptor ligands” (Cephalon, Inc., priority 2006, dated 2013).

Each structure is given as a SMILES string. Structures can show the parent of a compound that is named as a salt. Where two headings read alike, the source gives them in different places.

Series [1] has as its target T1, rat histamine H3 receptor (Rattus norvegicus, UniProt Q9QYN8).
T1 construct: encoding the entire 445-amino-acid rat histamine H3 receptor; expressed in transfected cells
As to the kind of experiment: Rat H3 radioligand binding ([3H]-N-alpha-methylhistamine, CHO-A3 cell membranes, SPA). In outline:
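Membranes from CHO-A3 cells stably expressing rat H3 (10 μg protein) incubated 4 h at room temperature in 50 mM Tris-HCl pH 7.4, 5 mM MgCl2, 0.1% BSA with ~1 nM [3H]-N-alpha-methylhistamine and compound (0.01 nM-30 μM). Bound radioligand read by scintillation proximity; nonspecific binding with 10 μM clobenpropit.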

A further series concerns the target T2, human H3 receptor (Homo sapiens, UniProt Q9Y5N1).
T2 construct: expressed in transfected cells
Briefly: Human H3 radioligand binding ([3H]-N-alpha-methylhistamine, CHO cell membranes, SPA). The conditions noted are these: binding constant as letter class. In outline: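 CHO cell membranes expressing human H3 (10 μg protein/well) incubated 4 h at room temperature, in the dark, with ~1 nM [3H]-N-alpha-methylhistamine, compounds (0.01 nM-30 μM) and SPA beads in 50 mM Tris HCl pH 7.4, 5 mM MgCl2, 0.1% BSA. Non-specific binding defined with 10 μM clobenpropit.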

The mark [2] stands for this setting: Table A, binding constant as letter class, read-out: Rat H3 Ki.
Where [3] appears, read: Table B, binding constant as letter class, read-out: rat H3 Ki.

T2 sequence (Q9Y5N1 whole entry): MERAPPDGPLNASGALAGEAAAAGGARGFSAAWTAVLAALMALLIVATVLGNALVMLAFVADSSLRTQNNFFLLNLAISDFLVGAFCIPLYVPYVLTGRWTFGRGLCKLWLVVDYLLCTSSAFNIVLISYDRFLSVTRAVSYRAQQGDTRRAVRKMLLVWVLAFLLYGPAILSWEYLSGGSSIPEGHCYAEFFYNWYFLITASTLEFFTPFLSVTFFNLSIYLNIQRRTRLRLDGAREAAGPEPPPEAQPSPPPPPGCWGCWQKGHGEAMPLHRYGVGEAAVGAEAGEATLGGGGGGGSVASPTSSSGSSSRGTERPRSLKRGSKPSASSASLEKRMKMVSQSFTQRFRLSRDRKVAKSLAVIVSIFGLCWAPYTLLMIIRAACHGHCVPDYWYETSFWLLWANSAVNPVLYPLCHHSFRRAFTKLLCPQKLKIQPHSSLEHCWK
T1 sequence (Q9QYN8 whole entry): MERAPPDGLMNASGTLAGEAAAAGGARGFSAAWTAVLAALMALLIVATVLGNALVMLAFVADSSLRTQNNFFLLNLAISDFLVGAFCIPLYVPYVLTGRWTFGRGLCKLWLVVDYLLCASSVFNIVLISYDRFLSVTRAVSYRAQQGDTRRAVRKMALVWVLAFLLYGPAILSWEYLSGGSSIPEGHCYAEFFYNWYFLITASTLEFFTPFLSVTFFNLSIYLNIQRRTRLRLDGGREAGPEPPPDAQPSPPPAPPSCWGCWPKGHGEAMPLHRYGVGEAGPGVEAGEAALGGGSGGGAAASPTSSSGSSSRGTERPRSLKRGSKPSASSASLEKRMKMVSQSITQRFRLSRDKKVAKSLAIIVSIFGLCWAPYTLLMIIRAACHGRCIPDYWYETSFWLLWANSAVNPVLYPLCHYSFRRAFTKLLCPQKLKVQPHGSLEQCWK

Turning to `CC(C)n1nc(-c2ccc(OCCCN3CCC[C@H]3C)cc2)ccc1=O` (as salt: tartrate) [Example 5, 2-Isopropyl-6-{4-[3-((R)-2-methyl-pyrrolidin-1-yl)-propoxy]-phenyl}-2H-pyridazin-3-one], the melting point (as a rule, the temperature, or range, at which the solid turns liquid) is 60 to 64 °C.
On the same count and under the same terms, next, `CCn1nc(-c2ccc(OCCCN3CCC[C@H]3C)cc2)ccc1=O` (as salt: tartrate) [Example 6, 2-Ethyl-6-{4-[3-((R)-2-methyl-pyrrolidin-1-yl)-propoxy]-phenyl}-2H-pyridazin-3-one]: 58 to 62 °C; `CC1CC(=O)NN=C1c1ccc(OCCCN2CCC[C@H]2C)cc1` (mixture of isomers) (as salt: HCl) [Example 194, 5-Methyl-6-{4-[3-((R)-2-methyl-pyrrolidin-1-yl)-propoxy]-phenyl}-4,5-dihydro-2H-pyridazin-3-one]: 169 to 171 °C; `CC1CC(=O)NN=C1c1ccc(OCCCN2CCCC2)cc1` (racemic) (as salt: HCl) [Example 198, 5-Methyl-6-[4-(3-pyrrolidin-1-yl-propoxy)-phenyl]-4,5-dihydro-2H-pyridazin-3-one]: 161 to 163 °C.
Still for that read-out and setting: next, `C[C@@H]1CCCN1CCCOc1ccc(C2=NNC(=O)C3CC23)cc1` (mixture of isomers) (as salt: HCl) [Example 243, 5-{4-[3-((R)-2-Methyl-pyrrolidin-1-yl)-propoxy]-phenyl}-3,4-diaza-bicyclo[4.1.0]hept-4-en-2-one]: 136 to 139 °C.
`CC1CC(=O)NN=C1c1ccc(OC2CCN(C3CCC3)CC2)cc1` (racemic) [Example 189, 6-[4-(1-Cyclobutyl-piperidin-4-yloxy)-phenyl]-5-methyl-4,5-dihydro-2H-pyridazin-3-one]: the melting point lay in the range of 163 to 165 °C. Further, the Ki (in general, a measure of affinity in units of concentration, obtained from inhibition or displacement) in series [1] lay within 0.1 to 100 nM.
As for `Cn1nc(-c2ccc(OCC3CCN(C(=O)OC(C)(C)C)CC3)cc2)c2ccccc2c1=O` [Example 62, 4-[4-(3-Methyl-4-oxo-3,4-dihydro-phthalazin-1-yl)-phenoxymethyl]-piperidine-1-carboxylic acid tert-butyl ester], the melting point lay in the range of 167 to 169 °C. For the same compound, in series [1] (setting [2]), the Ki is greater than 1000 nM. Moreover, on human H3 receptor (Table A), the Ki was greater than 1000 nM.
`Cn1nc(-c2ccc(OCC3CCN(C(=O)OC(C)(C)C)CC3)cc2)ccc1=O` [Example 65, 4-[4-(1-Methyl-6-oxo-1,6-dihydro-pyridazin-3-yl)-phenoxymethyl]-piperidine-1-carboxylic acid tert-butyl ester] showed a melting point of 164 to 166 °C. Also, the Ki in series [1] (setting [2]) is greater than 1000 nM. The same compound yielded a Ki at human H3 receptor (Table A) greater than 1000 nM.
`Cn1nc(-c2ccc(OC3CCN(C4CCCC4)CC3)cc2)ccc1=O` [Example 83, 6-[4-(1-Cyclopentyl-piperidin-4-yloxy)-phenyl]-2-methyl-2H-pyridazin-3-one] displayed a melting point of 129 to 132 °C. Besides, in series [1] (setting [3]), the Ki is 0.1 to 100 nM. This compound also displayed a Ki at human H3 receptor (Table B) of 0.1 to 100 nM.
With `C[C@@H]1CCCN1CCCOc1c(F)cc(-c2ccc(=O)n(C)n2)cc1F` [Example 84, 6-{3,5-Difluoro-4-[3-((R)-2-methyl-pyrrolidin-1-yl)-propoxy]-phenyl}-2-methyl-2H-pyridazin-3-one], the melting point was 175 to 178 °C. Also, in series [1] (setting [3]), the inhibition constant Ki was in the range of 0.1 to 100 nM. Further, on human H3 receptor (Table B), the inhibitory constant (Ki) was 0.1 to 100 nM.
`Cc1cccc(-n2ncc(-c3ccc(OCCCN4CCC[C@H]4C)cc3)cc2=O)n1` [Example 98, 2-(6-Methyl-pyridin-2-yl)-5-{4-[3-((R)-2-methyl-pyrrolidin-1-yl)-propoxy]-phenyl}-2H-pyridazin-3-one] returned a melting point of 118 to 120 °C. The Ki in series [1] (setting [3]) fell in the range of 0.1 to 100 nM. In addition, the Ki on human H3 receptor (Table B) fell in the range of 0.1 to 100 nM.
`Cc1n[nH]c(=O)cc1-c1ccc(OC2CCNCC2)cc1.Cl` [Example 102, 6-methyl-5-[4-(piperidin-4-yloxy)-phenyl]-2H-pyridazin-3-one] came in with a melting point of 225 to 227 °C. Further, the inhibition constant (Ki) in series [1] (setting [3]) was greater than 1000 nM. The same compound gave an inhibitory constant (Ki) at human H3 receptor (Table B) greater than 1000 nM.
The compound `CC1=NNC(=O)CC1c1ccc(OC2CCN(C3CCC3)CC2)cc1` (centres unmarked) [Example 110, 5-[4-(1-Cyclobutyl-piperidin-4-yloxy)-phenyl]-6-methyl-4,5-dihydro-2H-pyridazin-3-one] showed a melting point of 178 to 179 °C. In addition, the Ki in series [1] (setting [3]) is 0.1 to 100 nM. The same compound displayed an inhibition constant (Ki) at human H3 receptor (Table B) of 0.1 to 100 nM.
With `O=C1CC(c2ccccn2)C(c2ccc(OC3CCN(C4CCC4)CC3)cc2)=NN1` (centres unmarked) [Example 114, 6-[4-(1-Cyclobutyl-piperidin-4-yloxy)-phenyl]-5-pyridin-2-yl-4,5-dihydro-2H-pyridazin-3-one], the melting point was 199 °C (dec.). In addition, in series [1] (setting [3]), the Ki is 0.1 to 100 nM. In addition, the Ki at human H3 receptor (Table B) is 0.1 to 100 nM.
As for `O=c1cc(-c2ccccn2)c(-c2ccc(OC3CCN(C4CCC4)CC3)cc2)n[nH]1` [Example 115, 6-[4-(1-Cyclobutyl-piperidin-4-yloxy)-phenyl]-5-pyridin-2-yl-2H-pyridazin-3-one], the melting point is 203 °C (dec.). Also, in series [1] (setting [3]), the Ki lay in the range of 0.1 to 100 nM. Also, at human H3 receptor (Table B), the Ki lay within 0.1 to 100 nM.
Take `C[C@@H]1CCCN1CCCOc1ccc(-c2ccc(=O)[nH]n2)cc1C#N` [Example 129, 2-[3-((R)-2-Methyl-pyrrolidin-1-yl)-propoxy]-5-(6-oxo-1,6-dihydro-pyridazin-3-yl)-benzonitrile]: the melting point was > 200 °C (dec.). In addition, the Ki in series [1] (setting [3]) lay within 101 to 500 nM. The compound further yielded a Ki at human H3 receptor (Table B) of 0.1 to 100 nM.
`N#Cc1cc(-c2ccc(=O)[nH]n2)ccc1OCCCN1CCCCC1` [Example 130, 2-[3-(piperidin-1-yl)-propoxy]-5-(6-oxo-1,6-dihydro-pyridazin-3-yl)-benzonitrile] yielded a melting point of 207 to 209 °C. In addition, the inhibitory constant (Ki) in series [1] (setting [3]) fell in the range of 101 to 500 nM. The same compound had a Ki at human H3 receptor (Table B) of 101 to 500 nM.
As for `C[C@@H]1CCCN1CCCOc1ccc(-c2ccc(=O)n(CCO)n2)cc1` [Example 131, 2-(2-Hydroxy-ethyl)-6-{4-[3-((R)-2-methyl-pyrrolidin-1-yl)-propoxy]-phenyl}-2H-pyridazin-3-one], the melting point lay within 95 to 98 °C. Moreover, the inhibition constant Ki in series [1] (setting [3]) fell in the range of 0.1 to 100 nM. At human H3 receptor (Table B), this compound showed an inhibitory constant (Ki) of 0.1 to 100 nM.
In turn, `C[C@H](COc1ccc(-c2ccc(=O)[nH]n2)cc1)CN1CCC[C@H]1C` [Example 132] yielded a melting point of 163 to 167 °C. In addition, in series [1] (setting [3]), the Ki lay in the range of 0.1 to 100 nM. In addition, the Ki on human H3 receptor (Table B) is 0.1 to 100 nM.
As to `O=c1[nH]nc(-c2ccc(OCCCN3CCCCC3)cc2)c2c1CCC2` [Example 133, 4-[4-(3-Piperidin-1-yl-propoxy)-phenyl]-2,5,6,7-tetrahydro-cyclopenta[d]pyridazin-1-one], the melting point was 134 °C (dec.). In addition, in series [1] (setting [3]), the inhibitory constant (Ki) is 0.1 to 100 nM. Besides, the Ki at human H3 receptor (Table B) is 0.1 to 100 nM.
In the case of `O=c1ccc(-c2ccc(OCCCN3CCCCC3)cc2)n[nH]1` [Example 134, 6-[4-(3-Piperidin-1-yl-propoxy)-phenyl]-2H-pyridazin-3-one], the melting point is 186 °C (dec.). Moreover, the inhibitory constant (Ki) in series [1] (setting [3]) was in the range of 0.1 to 100 nM. The compound further registered an inhibition constant Ki at human H3 receptor (Table B) of 0.1 to 100 nM.
On to `COc1cc(-c2ccc(=O)[nH]n2)ccc1OCCCN1CCCCC1` [Example 135, 6-[3-Methoxy-4-(3-piperidin-1-yl-propoxy)-phenyl]-2H-pyridazin-3-one], for which the melting point is 175 °C (dec.). Also, in series [1] (setting [3]), the Ki fell in the range of 101 to 500 nM. This compound also gave an inhibition constant Ki on human H3 receptor (Table B) of 101 to 500 nM.
`COc1cc(-c2ccc(=O)[nH]n2)ccc1OCCCN1CCC[C@H]1C` [Example 136, 6-{3-Methoxy-4-[3-((R)-2-methyl-pyrrolidin-1-yl)-propoxy]-phenyl}-2H-pyridazin-3-one]: the melting point is 148 °C (dec.). Besides, the Ki in series [1] (setting [3]) is 101 to 500 nM. The compound further returned an inhibitory constant (Ki) at human H3 receptor (Table B) of 0.1 to 100 nM.
For `Cc1cc(OCCCN2CCCCC2)ccc1-c1ccc(=O)[nH]n1` [Example 137, 6-[2-Methyl-4-(3-piperidin-1-yl-propoxy)-phenyl]-2H-pyridazin-3-one], the melting point is 114 °C (dec.). The inhibition constant (Ki) in series [1] (setting [3]) lay within 0.1 to 100 nM. This compound returned a Ki at human H3 receptor (Table B) of 0.1 to 100 nM.
`CC(C)N1CCC(COc2ccc(-c3ccc(=O)[nH]n3)cn2)CC1` [Example 140, 6-[6-(1-Isopropyl-piperidin-4-ylmethoxy)-pyridin-3-yl]-2H-pyridazin-3-one] gave a melting point of 188 to 191 °C. Besides, the Ki in series [1] (setting [3]) fell in the range of 501 to 1000 nM. For the same compound, the Ki at human H3 receptor (Table B) lay in the range of 101 to 500 nM.
Taken in the same sequence, the figures for `O=c1ccc(-c2ccc(OC3CCN(C4CCC4)CC3)nc2)n[nH]1` [Example 141, 6-[6-(1-Cyclobutyl-piperidin-4-yloxy)-pyridin-3-yl]-2H-pyridazin-3-one] were 217 to 219 °C, 0.1 to 100 nM and 0.1 to 100 nM.
Take `C[C@H](COc1ccc(-c2cn[nH]c(=O)c2)cc1)CN1CCC[C@H]1C` [Example 225, 5-{4-[(S)-2-Methyl-3-((R)-2-methyl-pyrrolidin-1-yl)-propoxy]-phenyl}-2H-pyridazin-3-one]: the melting point fell in the range of 154 to 156 °C. Besides, the Ki in series [1] fell in the range of 0.1 to 100 nM.
For `C[C@@H](COc1ccc(-c2cn[nH]c(=O)c2)cc1)CN1CCC[C@H]1C` [Example 226, 5-{4-[(R)-2-Methyl-3-((R)-2-methyl-pyrrolidin-1-yl)-propoxy]-phenyl}-2H-pyridazin-3-one] the same measures were 130 to 133 °C and 0.1 to 100 nM.
